This note sets out measurements from US9884063B2, “Amido-substituted azole compounds” (Bayer Pharma Aktiengesellschaft, priority 2014, dated 2018).

For orientation: IC50 means the concentration that gives 50% inhibition.

The experiment concerns wildtype Wnt signaling cascade. The experiment can be described thus: HEK293 TOP Assay (Super TopFlash luciferase reporter, Wnt-3a stimulated). Type of experiment: cell-based. To be noted: Homo sapiens, HEK293, 16 h, HEK293 TOP reporter cell line, Wnt-3a at EC50, 16 hours incubation, compound dilution series 50 μM to 15 nM. The method, then: In order to discover and characterize small molecules which inhibit the wildtype Wnt pathway, a cellular reporter assay was employed. The corresponding assay cell was generated by transfection of the mammalian cell line HEK293 (ATCC, #CRL-1573) with the Super TopFlash vector (Morin, Science 275, 1997, 1787-1790; Molenaar et al., Cell 86 (3), 1996, 391-399). The HEK293 cell line is cultivated at 37° C. and 5% CO2 in DMEM (Life Technologies, #41965-039), supplemented with 2 mM glutamine, 20 mM HEPES, 1.4 mM pyruvate, 0.15% Na-bicarbonate and 10% foetal bovine serum (GIBCO, #10270). Stable transfectants were generated by selection with 300 μg/ml Hygromycin.
In preparation of the assay, the two cell lines were plated 24 hrs before beginning the test at 10000 cells per well in a 384 micro titre plate (MTP) in 30 μl growth medium. […] The recombinant human Wnt-3a was thereby applied between 2500 and 5 ng/ml in two-fold dilution steps.
Selective inhibitory activity for small molecules on the wildtype Wnt pathway was determined after parallel incubation of both (TOP and FOP) HEK293 reporter cell lines with a compound dilution series from 50 μM to 15 nM in steps of 3.16-fold dilutions in CAFTY buffer (130 mM sodium chloride, 5 mM potassium chloride, 20 mM HEPES, 1 mM magnesium chloride, 5 mM sodium bicarbonate, pH 7.4) containing 2 mM Ca^2+ and 0.01% BSA.
The compounds were thereby serially prediluted in 100% DMSO and thereafter 50 fold into the CAFTY compound dilution buffer (described above).
Background: Reporter assays use an easily measured gene product as a stand-in for the process of interest.

The structures appear in SMILES notation. Structures can show the parent of a compound that is named as a salt.

`COC(=O)c1nc[nH]c1C(=O)Nc1ccc(NC(=O)c2ccc(F)cc2)c(F)c1` [Example 75, methyl-5-({3-fluoro-4-[(4-fluorobenzoyl)amino]phenyl}carbamoyl)-1H-imidazole-4-carboxylate] yielded an IC50 of 13 µM. As for `CNC(=O)c1nc[nH]c1C(=O)Nc1ccc(NC(=O)c2cc(F)cc(F)c2)cc1` [Example 321, N^5-{4-[(3,5-difluorobenzoyl)amino]phenyl}-N^4-methyl-1H-imidazole-4,5-dicarboxamide], inhibition was half-maximal at 50 µM (IC50).

Compound `O=C(Nc1ccc(NC(=O)c2[nH]cnc2C(=O)NCCN2CCCC2=O)cc1)c1ccc(F)cc1Cl` [Example 398, N^5-{4-[(2-chloro-4-fluorobenzoyl)amino]phenyl}-N^4-[2-(2-oxopyrrolidin-1-yl)ethyl]-1H-imidazole-4,5-dicarboxamide] gave an IC50 of 0.71 µM. Against the preceding compound, the IC50 is about 70-fold lower. The same measure for `CNC(=O)c1nc[nH]c1C(=O)Nc1ccc(NC(=O)c2ccnc(Cl)c2)cc1` [Example 351, N^5-(4-{[(2-chloropyridin-4-yl)carbonyl]amino}phenyl)-N^4-methyl-1H-imidazole-4,5-dicarboxamide]: 12.5 µM; for `CNC(=O)c1nc[nH]c1C(=O)Nc1ccc(NC(=O)c2ccc(F)c(F)c2)cc1` [Example 320, N^5-{4-[(3,4-difluorobenzoyl)amino]phenyl}-N^4-methyl-1H-imidazole-4,5-dicarboxamide]: 4.8 µM. The same measure for `CC1CN(CCNC(=O)c2[nH]cnc2C(=O)Nc2ccc(NC(=O)c3ccc(F)cc3Cl)cc2)CC(C)O1` (stereo not shown) [Example 301, N^4-{4-[(2-4-fluorochlorobenzoyl)amino]phenyl}-N^5-[2-(2,6-dimethylmorpholin-4-yl)ethyl]-1H-imidazole-4,5-dicarboxamide]: 1.2 µM; for `CC(C)OCCCNC(=O)c1nc[nH]c1C(=O)Nc1ccc(NC(=O)c2ccc(F)cc2Cl)cc1` [Example 383, N^5-{4-[(2-chloro-4-fluorobenzoyl)amino]phenyl}-N^4-[3-(propan-2-yloxy)propyl]-1H-imidazole-4,5-dicarboxamide]: 50 µM.

Take `CNC(=O)c1nc[nH]c1C(=O)Nc1ccc(NC(=O)c2c(OC)cccc2OC)cc1` [Example 57, N^5-{4-[(2,6-dimethoxybenzoyl)amino]phenyl}-N^4-methyl-1H-imidazole-4,5-dicarboxamide]: the IC50 was found to be 33 µM. The same measure for `CNC(=O)c1nc[nH]c1C(=O)Nc1ccc(NC(=O)c2cc(F)c(F)c(Cl)c2)cc1` [Example 362, N^5-{4-[(3-chloro-4,5-difluorobenzoyl)amino]phenyl}-N^4-methyl-1H-imidazole-4,5-dicarboxamide]: 50 µM; for `Cc1cc(NC(=O)c2[nH]cnc2C(=O)NCCN2CCCCC2)ccc1NC(=O)c1ccc(F)cc1` [Example 93, N^5-{4-[(4-fluorobenzoyl)amino]-3-methylphenyl}-N^4-[2-(piperidin-1-yl)ethyl]-1H-imidazole-4,5-dicarboxamide]: 2.65 µM; for `O=C(Nc1ccc(NC(=O)c2nc[nH]c2C(=O)NCCO)cc1)c1ccc(F)cc1` [Example 136, N^4-{4-[(4-fluorobenzoyl)amino]phenyl}-N^5-(2-hydroxyethyl)-1H-imidazole-4,5-dicarboxamide]: 2.4 µM.

Compound `CNC(=O)c1nc[nH]c1C(=O)Nc1ccc(NC(=O)c2cccc(F)c2)cc1` [Example 331, N^5-{4-[(3-fluorobenzoyl)amino]phenyl}-N^4-methyl-1H-imidazole-4,5-dicarboxamide] displayed an IC50 of 8.6 µM. The same measure for `CN1CCN(CCNC(=O)c2[nH]cnc2C(=O)Nc2ccc(NC(=O)c3ccc(F)cc3)cc2)CC1` [Example 161, N^4-{4-[(4-fluorobenzoyl)amino]phenyl}-N^5-[2-(4-methylpiperazin-1-yl)ethyl]-1H-imidazole-4,5-dicarboxamide]: 36.5 µM. The same measure for `O=C(Nc1ccc(NC(=O)c2nc[nH]c2C(=O)NCC(F)F)cc1)c1ccc(F)cc1` [Example 141, N^5-(2,2-difluoroethyl)-N^4-{4-[(4-fluorobenzoyl)amino]phenyl}-1H-imidazole-4,5-dicarboxamide]: 3 µM; for `CNC(=O)c1nc[nH]c1C(=O)Nc1ccc(NC(=O)c2ccc(OC)c(F)c2)cc1` [Example 338, N^5-{4-[(3-fluoro-4-methoxybenzoyl)amino]phenyl}-N^4-methyl-1H-imidazole-4,5-dicarboxamide]: 2.8 µM; for `CN1CCN(NC(=O)c2[nH]cnc2C(=O)Nc2ccc(NC(=O)c3ccc(F)cc3)cc2)CC1` [Example 193, N^4-{4-[(4-fluorobenzoyl)amino]phenyl}-N^5-(4-methylpiperazin-1-yl)-1H-imidazole-4,5-dicarboxamide]: 5.7 µM. `CNC(=O)c1nc[nH]c1C(=O)Nc1ccc(NC(=O)c2ccc(OC)c(C)c2)cc1` [Example 355, N^5-{4-[(4-methoxy-3-methylbenzoyl)amino]phenyl}-N^4-methyl-1H-imidazole-4,5-dicarboxamide] showed an IC50 of 25 µM. The same measure for `CNC(=O)c1nc[nH]c1C(=O)Nc1ccc(NC(=O)c2ccc(C#N)c(F)c2)cc1` [Example 350, N^5-{4-[(4-cyano-3-fluorobenzoyl)amino]phenyl}-N^4-methyl-1H-imidazole-4,5-dicarboxamide]: 6.5 µM; for `CNC(=O)c1nc[nH]c1C(=O)Nc1ccc(NC(=O)c2ccno2)cc1` [Example 354, N^4-methyl-N^5-{4-[(1,2-oxazol-5-ylcarbonyl)amino]phenyl}-1H-imidazole-4,5-dicarboxamide]: 50 µM. With `COC(=O)c1nc[nH]c1C(=O)Nc1ccc(NC(=O)c2ccccc2Cl)nc1` [Example 111, methyl 5-({6-[(2-chlorobenzoyl)amino]pyridin-3-yl}carbamoyl)-1H-imidazole-4-carboxylate] the figure was 0.77 µM; with `CNC(=O)c1nc[nH]c1C(=O)Nc1ccc(NC(=O)c2ccc(C)cc2)cc1` [Example 337, N^4-methyl-N^5-{4-[(4-methylbenzoyl)amino]phenyl}-1H-imidazole-4,5-dicarboxamide], 23.5 µM; with `CN(C)CCNC(=O)c1nc[nH]c1C(=O)Nc1ccc(NC(=O)c2ccc(F)cc2)nc1` [Example 116, N^4-[2-(dimethylamino)ethyl]-N^5-{6-[(4-fluorobenzoyl)amino]pyridin-3-yl}-1H-imidazole-4,5-dicarboxamide], 44 µM. With `CNC(=O)c1nc[nH]c1C(=O)Nc1ccc(NC(=O)c2cccc(OC)c2F)cc1` [Example 365, N^5-{4-[(2-fluoro-3-methoxybenzoyl)amino]phenyl}-N^4-methyl-1H-imidazole-4,5-dicarboxamide] the figure was 50 µM; with `COCCNC(=O)c1[nH]cnc1C(=O)Nc1ccc(NC(=O)c2ccc(F)cc2)cc1` [Example 140, N^4-{4-[(4-fluorobenzoyl)amino]phenyl}-N^5-(2-methoxyethyl)-1H-imidazole-4,5-dicarboxamide], 5.7 µM. `O=C(Nc1ccc(NC(=O)c2nc[nH]c2C(=O)N2CCNCC2)cc1)c1ccc(F)cc1Cl` [Example 289, N-{4-[(2-chloro-4-fluorobenzoyl)amino]phenyl}-5-(piperazin-1-ylcarbonyl)-1H-imidazole-4-carb oxamide hydrochloric acid salt] registered an IC50 of 2.7 µM.
